Measured values published in patent US7799810B2, “Organic compounds” (Novartis AG, priority 2006, dated 2010).

How the values were obtained:
PI3K α, β or γ isoform = assay: Selectivity for the δ isoform by corresponding assay using the corresponding PI3K isoform; assay type: biochemical; settings: δ versus α
Description: PI3K delta enzyme assay based on Scintillation Proximity Assay (SPA) technology. Human PI3K delta is expressed as a recombinant protein in insect cells. PI3K delta activity is assayed by measuring the phosphorylation of phosphatidylinositol (PI) using a scintillation proximity assay. Briefly, the kinase reaction is performed in a final volume of 50 μl/well. The final concentrations of ATP and PI in the assay are 5 μM and 6 μg/ml, respectively. The reaction is started by the addition of PI3K delta and terminated by the addition of 50 μl Wheatgerm agglutinin SPA beads after 90 minutes of incubation at room temperature.

Human PI3K delta = molecular target: T1, Human PI3K delta (Homo sapiens, UniProt O00329); assay: Cellular PI3K delta assay (Akt phosphorylation in transfected Rat-1 cells); assay type: cell-based; settings: Rat-1 cells transfected with human PI3K delta CaaX construct, phospho Akt ELISA; read-out: IC50 PI3K delta-dependent Akt phosphorylation
T1 construct: fused on or other part: CaaX box (isoprenylation / membrane-targeting signal) added at the C-terminal end
T1 sequence (O00329 1-1044): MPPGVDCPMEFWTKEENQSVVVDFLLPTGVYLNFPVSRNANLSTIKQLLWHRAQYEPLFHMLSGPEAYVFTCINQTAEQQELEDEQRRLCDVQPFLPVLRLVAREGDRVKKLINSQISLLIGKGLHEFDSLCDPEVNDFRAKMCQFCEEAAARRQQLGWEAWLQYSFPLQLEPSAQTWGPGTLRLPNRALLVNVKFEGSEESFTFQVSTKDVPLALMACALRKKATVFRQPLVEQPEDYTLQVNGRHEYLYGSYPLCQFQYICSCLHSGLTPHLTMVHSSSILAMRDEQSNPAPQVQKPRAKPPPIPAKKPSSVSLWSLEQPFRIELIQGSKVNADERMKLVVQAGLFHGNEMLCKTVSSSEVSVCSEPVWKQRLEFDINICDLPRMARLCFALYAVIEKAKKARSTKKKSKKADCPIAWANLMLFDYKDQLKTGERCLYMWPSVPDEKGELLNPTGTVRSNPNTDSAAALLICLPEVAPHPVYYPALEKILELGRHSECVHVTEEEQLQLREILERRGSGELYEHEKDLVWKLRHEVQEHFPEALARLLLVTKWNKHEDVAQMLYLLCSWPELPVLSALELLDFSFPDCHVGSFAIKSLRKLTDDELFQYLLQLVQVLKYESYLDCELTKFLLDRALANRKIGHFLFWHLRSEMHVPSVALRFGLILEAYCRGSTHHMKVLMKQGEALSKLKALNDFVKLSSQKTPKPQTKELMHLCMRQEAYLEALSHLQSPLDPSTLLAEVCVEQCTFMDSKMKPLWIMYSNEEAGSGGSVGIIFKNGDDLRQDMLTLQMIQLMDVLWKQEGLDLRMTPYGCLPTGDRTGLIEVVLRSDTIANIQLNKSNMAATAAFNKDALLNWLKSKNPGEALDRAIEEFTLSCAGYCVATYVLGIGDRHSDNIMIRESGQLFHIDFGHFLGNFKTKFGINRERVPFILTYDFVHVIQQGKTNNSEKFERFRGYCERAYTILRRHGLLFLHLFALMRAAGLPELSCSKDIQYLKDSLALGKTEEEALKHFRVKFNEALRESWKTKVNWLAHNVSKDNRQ
From the text: Cellular PI3K delta assay. Rat-1 cells are transiently transfected with a human PI3K delta construct (pcDNA3 PIK3 delta containing a CaaX box at the C-terminal end) using the FUGENE transfection kit. The CaaX box signals for the attachment of an isoprenoid moiety which activates PI3K delta by targeting it to intracellular membranes/the plasma membrane. Subsequent, PI3K delta-dependent Akt phosphorylation is quantified in presence and absence of compounds to be tested using the phospho Akt ELISA kit from R&D Systems.

[1] = test system: spleen cells of nu/nu Balb/c mice; assay: B cell proliferation assay (anti-IgM stimulated spleen cells); assay type: cell-based; settings: anti-mouse IgM 5 μg/ml, 3 days, [3H] thymidine incorporation
Description: B cell proliferation assay. A spleen cell suspension of nu/nu Balb/c mice is prepared and adjusted to 2×10^6 cells/ml in complete Iscoves Medium followed by the addition of 10 μg/ml monoclonal anti-mouse IgM antibody (clone b-7-6). Compounds to be rested are dissolved in DMSO at 10 mM and diluted in complete Iscoves Medium. […] Plates are incubated for 3 days at 37° C. and 5% CO2. Cell proliferation is measured by incorporation of [^3H] thymidine following a 16 hours pulse.

[2] = test system: spleen cells from CBA and BALB/c mice; assay: Mixed lymphocyte reaction (two-way MLR); assay type: cell-based; settings: Mus musculus, four days of incubation, 3H-thymidine incorporation
Description: Mixed lymphocyte reaction (MLR). A two-way MLR is performed according to standard procedures. Briefly, spleen cells from CBA and BALB/c mice (1.6×10^5 cells from each strain per well in flat bottom tissue culture microtiter plates, 3.2×10^5 in total) are incubated in RPMI medium containing 10% fetal calf serum, 100 U/ml penicillin, 100 μg/ml streptomycin, 50 μM 2-mercaptoethanol and serially diluted compounds to be tested. After four days of incubation 1 μCi [^3H] thymidine is added to the cultures. Cells are harvested after an additional five-hour incubation period, and incorporated ^3H-thymidine is determined according to standard procedures. […] In this assay, the compounds of formula I have ICsovalues ranging from 20 nM to 200 nM.

- selectivity for the δ isoform over the α, β or γ isoform (ratio of IC50 values) (PI3K α, β or γ isoform): at least 10 fold
- IC50 (Human PI3K delta): 22 nM
- IC50 [2]: 26 nM
Compound: Cc1cc(NC(=O)CCNC(=O)Nc2nc(C)c(-c3ccc(-n4cccn4)cc3)s2)no1 [Example 2, N-(5-Methyl-isoxazol-3-yl)-3-{3-[4-methyl-5-(4-pyrazol-1-yl-phenyl)-thiazol-2-yl]-ureido}-propionamide]
- IC50 [1]: 15 nM
